Like-named read-outs stand apart in the source and are kept apart here. Marks after values point to notes of the source that are not given here.
Key:
Assay type in all cases: in vivo
[1] = test system: minimal muscular or neurological impairment; assay: Toxicity (TOX), rotorod procedure, mice
[2] = test system: kindled motor seizure; assay: Hippocampus kindling screen; conditions: Rats IP, 30 mg/kg after 1.0 h
Text: The hippocampus kindling screen is a useful adjunct to the traditional MES and scMet tests for identification of a substance potential utility for treating complex partial seizures. […] No toxic effects were observed as indicated by the lack of motor impairment on the rats tested.

[3] = test system: 6 Hz psychomotor seizure; assay: Minimal clonic seizure (6 Hz) test; conditions: Mice IP; for 6 Hz, animals protected/tested: 100 m/k; for ED50: Mus musculus, ip
How it was run: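 Mice dosed ip with test compound before 6 Hz corneal-type electrical stimulation lasting 3 s. Protection scored as absence of minimal clonic phase and stereotyped automatistic behaviour seen in untreated animals.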

[4] = Toxicity (TOX), minimal motor deficit, rats; conditions: in vivo; Rat IP
[5] = test system: minimal motor deficit (ataxia, abnormal gait); assay: Toxicity (TOX), minimal motor deficit, rats; conditions: for TOX (Rotorod Test), animals toxic/tested: Rat IP, 100 mg/kg
[6] = test system: MES-induced seizures; assay: Maximal electroshock test (MES), mice
[7] = test system: Metrazol-induced clonic seizures; assay: Subcutaneous Metrazol test (scMet), mice
[8] = test system: MES-induced seizures; assay: Maximal electroshock test (MES), rats
Description: The benzodiazepine derivative compounds selective for GABAa receptor subunits were tested for the ability to suppress seizures in several standard rat and mouse models of epilepsy. […] The standard models incorporated into anticonvulsant screening include the maximal electroshock test (MES), the subcutaneous Metrazol test (scMet), and evaluations of toxicity (TOX). The data for each condition is presented as a ratio of either the number of animals protected or toxic (loss of locomotor activity) over the number of animals tested at a given time point and dose.
The MES is a model for generalized tonic-clonic seizures and provides an indication of a compound's ability to prevent seizure spread when all neuronal circuits in the brain are maximally active. These seizures are highly reproducible and are electrophysiologically consistent with human seizures. For all tests based on MES convulsions, 60 Hz of alternating current (50 mA in mice, 150 in rats) is delivered for by corneal electrodes which have been primed with an electrolyte solution containing an anesthetic agent (0.5% tetracaine HCL). For Test 1, mice are tested at various intervals following doses of 30, 100 and 300 mg/kg of test compound given by ip injection of a volume of 0.01 mL/g. In Test 2, rats are tested after a dose of 30 mg/kg (po) in a volume of 0.04 mL/g. Test 8 uses varying doses administered via i.p. injection, again in a volume of 0.04 ml/g. […] In Antiepileptic Drugs, Levy, R. H. M., Meldrum, B. S., Eds.; Raven Press: New York, pp 99-110, 1995b.).

[9] = Mice, 50 mg/kg PO (Mice IP), 0.5 hr
[10] = Mice, 50 mg/kg PO (Mice IP), 4.0 hr

With `C#Cc1ccc2c(c1)C(c1ccccc1F)=NCc1c(C(=O)OCC)ncn1-2` [JY-XHe-053 (15), Ethyl-8-acetyleno-6-(2′-fluorophenyl)-4H-benzo[f]imidazo[1,5-a][1,4]diazepine-3-carboxylate] as the molecule, how does the “TOX (Rotorod Test), animals toxic/tested” value ([1]; Mice IP, 100 mg/kg, 0.5 hr) read?
Its value is 6/8.

And the “TOX (Rotorod Test), animals toxic/tested” value ([1]; Mice IP, 100 mg/kg, 4.0 hr)?
Its value is 0/4.

What about the “TD50 TOX” value ([1]; Mice IP, rotorod) of the same molecule?
The value was over 400 mg/kg.

And the “TOX (Rotorod Test), animals toxic/tested” value [1, 9]?
Its value is 0/4.

And the “TOX (Rotorod Test), animals toxic/tested” value [1, 10]?
Its value is 0/4.

What about the “Tox, animals toxic/tested” value [2] of the same molecule?
Its value is 0/2^b.

And the “Afterdischarge Duration, Drug (Low-High)” value ([2]; pre-drug 30-41)?
Its value is 38- s.

And the “6 Hz, animals protected/tested” value ([3]; 44 mA, 0.5 hr)?
The value was 4/4.

What about the “6 Hz, animals protected/tested” value ([3]; 44 mA, 1.0 hr) of the same molecule?
Its value is 2/4.

What about the “6 Hz, animals protected/tested” value ([3]; 44 mA, 2.0 hr) of the same molecule?
The value was 2/4.

What about the “6 Hz, animals protected/tested” value ([3]; 44 mA, 4 hr) of the same molecule?
Its value is 0/4.

What about the “6 Hz, animals protected/tested” value ([3]; 44 mA, […]) of the same molecule?
Its value is 2/4.

What about the ED50 ([3]; 32 mA, read-out: ED50 32 mA (6 Hz test)) of the same molecule?
Its ED50 is 39.2 mg/kg.

And the TD50 [4]?
The TD50 was 69.6 mg/kg.

What about the “TOX (Rotorod Test), animals toxic/tested” value ([5]; 0.5 hr) of the same molecule?
The value was 0/4.

And the “TOX (Rotorod Test), animals toxic/tested” value ([5]; 4.0 hr)?
The value was 0/4.

What about the “Tox, animals toxic/tested” value ([5]; Rat PO, 40 mg/kg, 4.0 h) of the same molecule?
Its value is 0/4^e.

What about the “Tox, animals toxic/tested” value ([5]; Rat PO, 40 mg/kg, 6.0 h) of the same molecule?
The value was 0/4^e.

What about the “Tox, animals toxic/tested” value ([5]; Rat PO, 50 mg/kg, 0.5 h) of the same molecule?
The value was 0/4.

What about the “Tox, animals toxic/tested” value ([5]; Rat PO, 50 mg/kg, 1.0 h) of the same molecule?
Its value is 0/4.

What about the “Tox, animals toxic/tested” value ([5]; Rat PO, 50 mg/kg, 2.0 h) of the same molecule?
Its value is 0/4.

What about the “Tox, animals toxic/tested” value ([5]; Rat PO, 50 mg/kg, 4.0 h) of the same molecule?
The value was 0/4.

And the “Tox, animals toxic/tested” value ([5]; Rat PO, 50 mg/kg, […])?
The value was 0/4.

What about the “TD50 TOX” value ([5]; Rat PO, abnormal gait) of the same molecule?
Its value is over 500 mg/kg.

What about the “motor impairment / sedative or locomotor effects” value ([5]; rats, oral administration, up to 500 mg/kg) of the same molecule?
Its value is “No motor impairment”.

And the “MES, animals protected/tested” value ([6]; Mice IP, 100 mg/kg, 0.5 hr)?
The value was 0/3.

What about the “MES, animals protected/tested” value ([6]; Mice IP, 100 mg/kg, 4.0 hr) of the same molecule?
Its value is 0/3.

What about the “MES, animals protected/tested” value [6, 9] of the same molecule?
The value was 1/4.

And the “MES, animals protected/tested” value [6, 10]?
Its value is 0/4.

And the ED50 ([6]; Mus musculus, Mice IP)?
The ED50 was over 200 mg/kg.

And the “scMet, animals protected/tested” value ([7]; Mice IP, 100 mg/kg, 0.5 hr)?
Its value is 5/5.

And the “scMet, animals protected/tested” value ([7]; Mice IP, 100 mg/kg, 4.0 hr)?
Its value is 0/1.

What about the “scMet, animals protected/tested” value [7, 9] of the same molecule?
Its value is 3/4.

What about the “scMet, animals protected/tested” value [7, 10] of the same molecule?
Its value is 4/4.

What about the ED50 ([7]; Mus musculus, Mice IP) of the same molecule?
Its ED50 is 8.87 mg/kg.

And the ED50 ([8]; Rat IP)?
The ED50 was over 30 mg/kg.

What about the ED50 ([8]; Rat PO) of the same molecule?
The ED50 was over 250 mg/kg.

What about the “MES, animals protected/tested” value ([8]; Rat PO, 30 mg/kg, 0.5 h) of the same molecule?
Its value is 0/4.

And the “MES, animals protected/tested” value ([8]; Rat PO, 30 mg/kg, 1.0 h)?
Its value is 0/4.

What about the “MES, animals protected/tested” value ([8]; Rat PO, 30 mg/kg, 2.0 h) of the same molecule?
The value was 0/4.

And the “MES, animals protected/tested” value ([8]; Rat PO, 30 mg/kg, 4.0 h)?
The value was 1/4.

And the “MES, animals protected/tested” value ([8]; Rat PO, 30 mg/kg, 6.0 h)?
The value was 0/4.

Which results are given for `C#Cc1ccc2c(c1)C(c1ccccc1)=N[C@H](C)c1nnc(C)n1-2` [SH-TR-CH3 (146), (4R)-8-Ethynyl-1,4-dimethyl-6-phenyl-4H-benzo[f][1,2,4]triazolo[4,3-a][1,4]diazepine]?
TOX (Rotorod Test), animals toxic/tested ([1]; Mice IP, 30 mg/kg, 0.5 Hr): 0/4; TOX (Rotorod Test), animals toxic/tested ([1]; Mice IP, 30 mg/kg, 4.0 Hr): 0/2; TOX (Rotorod Test), animals toxic/tested ([1]; Mice IP, 100 mg/kg, 0.5 hr): 1/8; TOX (Rotorod Test), animals toxic/tested ([1]; Mice IP, 100 mg/kg, 4.0 hr): 0/4; TOX (Rotorod Test), animals toxic/tested ([1]; Mice IP, 300 mg/kg, 0.5 Hr): 1/4; TOX (Rotorod Test), animals toxic/tested ([1]; Mice IP, 300 mg/kg, 4.0 Hr): 0/2; 6 Hz Time to Peak Effect, protected/tested ([3]; 7 mg/kg, 32 mA, 0.25 Hr): 4/4; 6 Hz Time to Peak Effect, protected/tested ([3]; 7 mg/kg, 32 mA, 0.5 Hr): 4/4; 6 Hz Time to Peak Effect, protected/tested ([3]; 7 mg/kg, 32 mA, 1.0 Hr): 2/4; 6 Hz Time to Peak Effect, protected/tested ([3]; 15 mg/kg, 32 mA, 0.25 Hr): 4/4; 6 Hz Time to Peak Effect, protected/tested ([3]; 15 mg/kg, 32 mA, 0.5 Hr): 4/4^14; 6 Hz Time to Peak Effect, protected/tested ([3]; 15 mg/kg, 32 mA, 1.0 Hr): 4/4^14; 6 Hz Time to Peak Effect, protected/tested ([3]; 15 mg/kg, 32 mA, 2.0 Hr): 2/4; 6 Hz Time to Peak Effect, protected/tested ([3]; 15 mg/kg, 32 mA, 4.0 Hr): 1/4; 6 Hz Time to Peak Effect, protected/tested ([3]; 50 mg/kg, 32 mA, 0.25 Hr): 4/4^14; 6 Hz Time to Peak Effect, protected/tested ([3]; 50 mg/kg, 32 mA, 0.5 Hr): 4/4^14; 6 Hz Time to Peak Effect, protected/tested ([3]; 100 mg/kg, 32 mA, 0.25 Hr): 4/4^14; 6 Hz Time to Peak Effect, protected/tested ([3]; 100 mg/kg, 32 mA, 0.5 Hr): 4/4^14; 6 Hz Time to Peak Effect, protected/tested ([3]; 100 mg/kg, 32 mA, 1.0 Hr): 4/4^14; 6 Hz Time to Peak Effect, protected/tested ([3]; 100 mg/kg, 32 mA, 2.0 Hr): 4/4^14; 6 Hz Time to Peak Effect, protected/tested ([3]; 100 mg/kg, 32 mA, 4.0 Hr): 4/4^14; 6 Hz ED50 Biological Response, protected/tested ([3]; 32 mA, 0.25 Hr, 1.75 mg/kg): 4/8; 6 Hz ED50 Biological Response, protected/tested ([3]; 32 mA, 0.25 Hr, 7 mg/kg): 8/8; 6 Hz ED50 Biological Response, protected/tested ([3]; 44 mA, 0.25 Hr, 5 mg/kg): 5/8; 6 Hz ED50 Biological Response, protected/tested ([3]; 44 mA, 0.25 Hr, 10 mg/kg): 8/8; ED50 ([3]; […], 32 mA, 0.25 Hr, read-out: ED50 (6 Hz)): 2.08 mg/kg; ED50 ([3]; […], 44 mA, 0.25 Hr, read-out: ED50 (6 Hz)): 4.55 mg/kg; Tox, animals toxic/tested ([5]; Rat PO, 50 mg/kg, 0.5 h): 0/4; Tox, animals toxic/tested ([5]; Rat PO, 50 mg/kg, 1.0 h): 1/4; Tox, animals toxic/tested ([5]; Rat PO, 50 mg/kg, 2.0 h): 1/4; Tox, animals toxic/tested ([5]; Rat PO, 50 mg/kg, 4.0 h): 0/4; Tox, animals toxic/tested ([5]; Rat PO, 50 mg/kg, […]): 0/4; MES, animals protected/tested ([6]; Mice IP, 30 mg/kg, 0.5 Hr): 0/1; MES, animals protected/tested ([6]; Mice IP, 30 mg/kg, 4.0 Hr): 0/1; MES, animals protected/tested ([6]; Mice IP, 100 mg/kg, 0.5 hr): 0/3; MES, animals protected/tested ([6]; Mice IP, 100 mg/kg, 4.0 hr): 0/3; MES, animals protected/tested ([6]; Mice IP, 300 mg/kg, 0.5 Hr): 0/1; MES, animals protected/tested ([6]; Mice IP, 300 mg/kg, 4.0 Hr): 0/1; scMet, animals protected/tested ([7]; Mice IP, 30 mg/kg, 0.5 Hr): 0/1; scMet, animals protected/tested ([7]; Mice IP, 30 mg/kg, 4.0 Hr): 0/1; scMet, animals protected/tested ([7]; Mice IP, 100 mg/kg, 0.5 hr): 0/1; scMet, animals protected/tested ([7]; Mice IP, 100 mg/kg, 4.0 hr): 0/1; scMet, animals protected/tested ([7]; Mice IP, 300 mg/kg, 0.5 Hr): 1/1; scMet, animals protected/tested ([7]; Mice IP, 300 mg/kg, 4.0 Hr): 0/1; MES, animals protected/tested ([8]; Rat PO, 50 mg/kg, 0.5 h): 0/4; MES, animals protected/tested ([8]; Rat PO, 50 mg/kg, 1.0 h): 0/4; MES, animals protected/tested ([8]; Rat PO, 50 mg/kg, 2.0 h): 0/4; MES, animals protected/tested ([8]; Rat PO, 50 mg/kg, 4.0 h): 0/4; MES, animals protected/tested ([8]; Rat PO, 50 mg/kg, […]): 0/4

— US20100261711A1, “SELECTIVE ANTICONVULSANT AGENTS AND THEIR USES” (WiSys Technology Foundation, priority 2009, published 2010)
